Measured values from patent US20220402882A1, “HERBICIDAL COMPOUNDS” (SYNGENTA CROP PROTECTION AG, priority 2019, published 2022).

Tests used:
Assay type in all cases: in vivo
Conditions in all cases: 125 g/h, evaluated after 13 days
[1] = tested on: Echinochloa crus-galli (ECHCG); experiment: Post-emergence glasshouse herbicide test
Description: (§1) Seeds of a variety of test species are sown in standard soil in pots (Lolium perenne (LOLPE), Amaranthus retoflexus (AMARE), Abutilon theophrasti (ABUTH), Setaria faberi (SETFA), Echinochloa crus-galli (ECHCG), Ipomoea hederacea (IPOHE)). After cultivation for one day (pre-emergence) or after 8 days cultivation (post-emergence) under controlled conditions in a glasshouse (at 24/16° C., day/night; 14 hours light; 65% humidity), the plants are sprayed with an aqueous spray solution derived from the formulation of the technical active ingredient in acetone/water (50:50) solution containing 0.5% Tween™ 20 (polyoxyethelyene sorbitan monolaurate, CAS RN 9005-64-5). Compounds are applied at 125 g/h unless otherwise indicated. The test plants are then grown in a glasshouse under controlled conditions in a glasshouse (at 24/16° C., day/night; 14 hours light; 65% humidity) and watered twice daily. After 13 days for pre- and post-emergence, the test is evaluated for the percentage damage caused to the plant. The biological activities are shown in the following table on a five-point scale (5=80-100%; 4=60-79%; 3=40-59%; 2=20-39%; 1=0-19%).

[2] = tested on: Abutilon theophrasti (ABUTH); experiment: Post-emergence glasshouse herbicide test
Description: as §1

[3] = tested on: Ipomoea hederacea (IPOHE); experiment: Post-emergence glasshouse herbicide test
Description: as §1

Setaria faberi (SETFA) [4] = experiment: Post-emergence glasshouse herbicide test
Description: as §1

[5] = tested on: Amaranthus retoflexus (AMARE); experiment: Post-emergence glasshouse herbicide test
Description: as §1

[6] = tested on: Echinochloa crus-galli (ECHCG); experiment: Pre-emergence glasshouse herbicide test
Description: as §1

[7] = tested on: Abutilon theophrasti (ABUTH); experiment: Pre-emergence glasshouse herbicide test
Description: as §1

[8] = tested on: Ipomoea hederacea (IPOHE); experiment: Pre-emergence glasshouse herbicide test
Description: as §1

Setaria faberi (SETFA) [9] = experiment: Pre-emergence glasshouse herbicide test
Description: as §1

[10] = tested on: Amaranthus retoflexus (AMARE); experiment: Pre-emergence glasshouse herbicide test
Description: as §1

Structure (SMILES) | percentage damage caused to the plant, ECHCG [1] | percentage damage caused to the plant, ABUTH [2] | percentage damage caused to the plant, IPOHE [3] | percentage damage caused to the plant, SETFA (Setaria faberi (SETFA) [4]) | percentage damage caused to the plant, AMARE [5] | percentage damage caused to the plant, ECHCG [6] | percentage damage caused to the plant, ABUTH [7] | percentage damage caused to the plant, IPOHE [8] | percentage damage caused to the plant, SETFA (Setaria faberi (SETFA) [9]) | percentage damage caused to the plant, AMARE [10]
CCSc1c(OC(F)F)ccc(C(=O)Nc2nnnn2C)c1C [Compound 1.028] | 5 (5=80-100%) | 5 (5=80-100%) | 5 (5=80-100%) | 5 (5=80-100%) | 5 (5=80-100%) | 5 (5=80-100%) | 5 (5=80-100%) | 3 (3=40-59%) | 5 (5=80-100%) | 5 (5=80-100%)
CC[S+]([O-])c1c(OC(F)F)ccc(C(=O)Nc2nnnn2C)c1C (centres unmarked) [Compound 1.029] | 5 (5=80-100%) | 5 (5=80-100%) | 5 (5=80-100%) | 5 (5=80-100%) | 5 (5=80-100%) | 5 (5=80-100%) | 5 (5=80-100%) | 4 (4=60-79%) | 5 (5=80-100%) | 5 (5=80-100%)
CCSc1c(OC(F)(F)F)ccc(C(=O)Nc2nnnn2C)c1C [Compound 1.030] | 5 (5=80-100%) | 5 (5=80-100%) | 5 (5=80-100%) | 5 (5=80-100%) | 5 (5=80-100%) | 5 (5=80-100%) | 5 (5=80-100%) | 3 (3=40-59%) | 5 (5=80-100%) | 5 (5=80-100%)
CCS(=O)(=O)c1c(OC(F)F)ccc(C(=O)Nc2nnnn2C)c1C [Compound 1.031] | 5 (5=80-100%) | 5 (5=80-100%) | 5 (5=80-100%) | 5 (5=80-100%) | 5 (5=80-100%) | 5 (5=80-100%) | 5 (5=80-100%) | 5 (5=80-100%) | 5 (5=80-100%) | 5 (5=80-100%)
Cn1nnnc1NC(=O)c1ccc(OCC(F)F)c([S+](C)[O-])c1Cl (centres unmarked) [Compound 1.034] | 5 (5=80-100%) | 4 (4=60-79%) | 3 (3=40-59%) | 4 (4=60-79%) | 4 (4=60-79%) | 4 (4=60-79%) | 3 (3=40-59%) | 2 (2=20-39%) | 4 (4=60-79%) | 4 (4=60-79%)
